Assay results taken from ChEMBL document CHEMBL3045411, “Efficacy and effects on yield of different fungicides for control of wet bubble disease of mushroom caused by the mycoparasite Mycogone perniciosa” (2010).
In brackets after ≈: the same amount, converted by molar mass.

Tested on: Mycogone perniciosa
Test: Antimicrobial activity against Mycogone perniciosa isolates assessed as inhibition of mycelial growth after 12 days
Type: functional
Details: 288 h, read-out: ED50 (the source's name)

Q: With CC(C)NC(=O)N1CC(=O)N(c2cc(Cl)cc(Cl)c2)C1=O [IPRODIONE] as the compound, how does the EC50 read?
A: 2.69 µg/mL (≈ 8.14 µM)

Q: How did the EC50 turn out when COC(=O)NC(=S)Nc1ccccc1NC(=S)NC(=O)OC [THIOPHANATE METHYL] was run?
A: 0.773 µg/mL (≈ 2.26 µM)

Q: c1ccc2[nH]c(-c3cscn3)nc2c1 [THIABENDAZOLE] was tested. Which EC50 did it give?
A: 0.225 µg/mL (≈ 1.12 µM)

Q: For COC(=O)Nc1nc2ccccc2[nH]1 [CARBENDAZIM], which EC50 is on record?
A: 0.065 µg/mL (≈ 0.34 µM)
